Test results reported in PubChem BioAssay AID2060613 (Molecular Pharmacology Branch, DTP, NCI, 2025).
Where “and” joins values, the source holds several entries; their conditions need not be identical. Equal entries are not always repeated.

Test system: 233499-124-R-J3-PDC complex spheroid viability
Experiment: Anticancer human tumor 233499-124-R-J3-PDC patient-derived colon adenocarcinoma cell line growth inhibition [CLK]
Details: for viability, T/C: stronger effect = lower value; for IC50: curve of first compound
Summary of the method: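 Patient-derived tumor cells grown as complex spheroids with HUVEC endothelial cells and mesenchymal stem cells, treated with drug combinations. Concentrations descend in half-log steps from near clinical Cmax, or from 10 microM if Cmax unknown.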
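Further: spheroids exposed to the drug combinations for seven days.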
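Wherever viability, T/C is given: percent viability relative to DMSO vehicle control wells taken as 100%.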

## CCc1c2c(nc3ccc(O)cc13)-c1cc3c(c(=O)n1C2)COC(=O)[C@]3(O)CC
Compound 0.00316 µM
  viability, T/C: 88.5% and 83.9%
Compound 0.01 µM
  viability, T/C: 62.1% and 59.6%
Compound 0.0316 µM
  viability, T/C: 87.1% and 45.6%
Compound 0.1 µM
  viability, T/C: 92.3% and 52.8%
Compound 0.316 µM
  viability, T/C: 80.8% and 49.8%
Compound 1 µM
  viability, T/C: 42% and 37.8%

## CC(C)CC(NC(=O)C(Cc1ccccc1)NC(=O)c1cnccn1)B(O)O (stereo not drawn) + CNC(=O)c1ccc(Nc2nc(OC3CCCC3)c3c(-c4ccc5nc(C)oc5c4)c[nH]c3n2)c(OC)c1
Second compound 0.0316 µM
  IC50: 5.39 nM
Second compound 0.1 µM
  IC50: 4.71 nM
Second compound 0.316 µM
  IC50: 2.27 nM
Second compound 1 µM
  IC50: 2.07 nM
Second compound 3.16 µM
  IC50: 1.51 nM
Second compound 10 µM
  IC50: 1.97 nM
Second compound 0.0316 µM, first compound 0.000949 µM
  viability, T/C: 96.3%
Second compound 0.0316 µM, first compound 0.003 µM
  viability, T/C: 106%
Second compound 0.0316 µM, first compound 0.00949 µM
  viability, T/C: 0.33%
Second compound 0.0316 µM, first compound 0.03 µM
  viability, T/C: 0.21%
Second compound 0.0316 µM, first compound 0.0949 µM
  viability, T/C: 0.19%
Second compound 0.0316 µM, first compound 0.3 µM
  viability, T/C: 0.17%
Second compound 0.1 µM, first compound 0.000949 µM
  viability, T/C: 81.5%
Second compound 0.1 µM, first compound 0.003 µM
  viability, T/C: 82.5%
Second compound 0.1 µM, first compound 0.00949 µM
  viability, T/C: 0.57%
Second compound 0.1 µM, first compound 0.03 µM
  viability, T/C: 0.17%
Second compound 0.1 µM, first compound 0.0949 µM
  viability, T/C: 0.16%
Second compound 0.1 µM, first compound 0.3 µM
  viability, T/C: 0.16%
Second compound 0.316 µM, first compound 0.000949 µM
  viability, T/C: 69.5%
Second compound 0.316 µM, first compound 0.003 µM
  viability, T/C: 43.7%
Second compound 0.316 µM, first compound 0.00949 µM
  viability, T/C: 0.19%
Second compound 0.316 µM, first compound 0.03 µM
  viability, T/C: 0.16%
Second compound 0.316 µM, first compound 0.0949 µM
  viability, T/C: 0.14%
Second compound 0.316 µM, first compound 0.3 µM
  viability, T/C: 0.54%
Second compound 1 µM, first compound 0.000949 µM
  viability, T/C: 92.2%
Second compound 1 µM, first compound 0.003 µM
  viability, T/C: 30.1%
Second compound 1 µM, first compound 0.00949 µM
  viability, T/C: 0.18%
Second compound 1 µM, first compound 0.03 µM
  viability, T/C: 0.15%
Second compound 1 µM, first compound 0.0949 µM
  viability, T/C: 0.15%
Second compound 1 µM, first compound 0.3 µM
  viability, T/C: 0.15%
Second compound 3.16 µM, first compound 0.000949 µM
  viability, T/C: 71.7%
Second compound 3.16 µM, first compound 0.003 µM
  viability, T/C: 18.4%
Second compound 3.16 µM, first compound 0.00949 µM
  viability, T/C: 0.16%
Second compound 3.16 µM, first compound 0.03 µM
  viability, T/C: 0.16%
Second compound 3.16 µM, first compound 0.0949 µM
  viability, T/C: 0.16%
Second compound 3.16 µM, first compound 0.3 µM
  viability, T/C: 0.7%
Second compound 10 µM, first compound 0.000949 µM
  viability, T/C: 77%
Second compound 10 µM, first compound 0.003 µM
  viability, T/C: 34.5%
Second compound 10 µM, first compound 0.00949 µM
  viability, T/C: 0.2%
Second compound 10 µM, first compound 0.03 µM
  viability, T/C: 0.17%
Second compound 10 µM, first compound 0.0949 µM
  viability, T/C: 0.2%
Second compound 10 µM, first compound 0.3 µM
  viability, T/C: 0.66%
